ChEMBL document CHEMBL5058564, “EUbOPEN Chemogenomics Library 2 (Incucyte)” (2022)

What was measured:
Assay type in all cases: toxicity, cell-based
HEK-293T = assay: Incucyte cell viability with HEK293T; details: human, 10 µM, compound concentration 10 uM
Fibroblast = assay: Incucyte cell viability with human fibroblast; details: 10 µM, compound concentration 10 uM
U2OS = assay: Incucyte cell viability with U2OS; details: human, 10 µM, compound concentration 10 uM
[1] = 0 h, replicate number 2, timepoint 0 hours
[2] = 6 h, replicate number 1, timepoint 6 hours
[3] = 6 h, replicate number 2, timepoint 6 hours
[4] = 12 h, replicate number 1, timepoint 12 hours
[5] = 12 h, replicate number 2, timepoint 12 hours
[6] = 18 h, replicate number 1, timepoint 18 hours
[7] = 24 h, replicate number 1, timepoint 24 hours
[8] = 18 h, replicate number 2, timepoint 18 hours
[9] = 24 h, replicate number 2, timepoint 24 hours
[10] = 0 h, replicate number 1, timepoint 0 hours
Also: unitless GR value; below 1 slowed growth and below 0 cell loss.

| SMILES | Growth Rate (HEK-293T; [2]) | Growth Rate (HEK-293T; [3]) | Growth Rate (HEK-293T; [4]) | Growth Rate (HEK-293T; [5]) | Growth Rate (HEK-293T; [6]) | Growth Rate (HEK-293T; [7]) | Growth Rate (Fibroblast; [3]) | Growth Rate (Fibroblast; [5]) | Growth Rate (U2OS; [1]) | Growth Rate (U2OS; [2]) | Growth Rate (U2OS; [5]) | Growth Rate (U2OS; [8]) | Growth Rate (HEK-293T; [8]) | Growth Rate (HEK-293T; [9]) | Growth Rate (Fibroblast; [4]) | Growth Rate (Fibroblast; [6]) | Growth Rate (Fibroblast; [7]) | Growth Rate (U2OS; [10]) | Growth Rate (U2OS; [3]) | Growth Rate (U2OS; [6]) | also measured |
| --- | --- | --- | --- | --- | --- | --- | --- | --- | --- | --- | --- | --- | --- | --- | --- | --- | --- | --- | --- | --- | --- |
| CCCCC(=O)N(Cc1ccc(-c2ccccc2-c2nnn[nH]2)cc1)[C@H](C(=O)O)C(C)C | 0.44 | 0.43 | 0.75 | 0.94 | 0.6 | 0.8 | 0.44 | 0.96 | -0.99 | 0.76 | 0.99 | 0.92 | – | – | – | – | – | – | – | – | Growth Rate (HEK-293T; [1]): 0.85; Growth Rate (Fibroblast; [1]): 0.94 |
| CCC(=O)N1CC[C@H](Nc2ncnc3c2CN(c2cnc(OC)c(C(F)(F)F)c2)CC3)C1 [LENIOLISIB] | 0.27 | -0.14 | 0.69 | 0.28 | 0.81 | 0.96 | 0.91 | – | 0.52 | 0.65 | 0.58 | 0.79 | 0.66 | 0.71 | 0.26 | 0.75 | 0.72 | 0.57 | 0.66 | 0.83 | Growth Rate (Fibroblast; [2]): -0.68; Growth Rate (U2OS; [7]): 0.81; Growth Rate (U2OS; [9]): 0.79 |
| O=C(O)c1cccc(/C=C2/C[C@@H]3[C@@H](/C=C/[C@H](O)C4CCCCC4)[C@H](O)C[C@@H]3O2)c1 | – | – | – | – | 0.98 | 0.9 | 0.96 | 0.77 | 0.48 | 0.65 | 0.94 | – | 1 | 0.92 | – | – | – | – | 0.71 | 0.9 | Growth Rate (HEK-293T; [10]): -0.12; Growth Rate (HEK-293T; [1]): -0.26; Growth Rate (Fibroblast; [10]): -0.51; Growth Rate (Fibroblast; [1]): -0.06; Growth Rate (Fibroblast; [9]): 0.89; Growth Rate (U2OS; [4]): 0.59 |
| CC(C)(O)C(=O)N1CCN(c2ccc(C(F)(F)F)c(C3=C(c4c[nH]c5ccccc45)C(=O)NC3=O)c2)CC1 | 0.49 | 0.88 | 0.3 | 0.37 | 0.44 | 0.33 | 0.17 | 0.04 | 0.29 | 0.8 | 0.78 | 0.68 | 0.36 | – | -0.33 | -0.31 | -0.3 | -0.52 | 0.91 | 0.66 | Growth Rate (HEK-293T; [1]): 0.33; Growth Rate (Fibroblast; [10]): -0.17; Growth Rate (Fibroblast; [1]): -0.42; Growth Rate (Fibroblast; [2]): -0.69; Growth Rate (Fibroblast; [8]): -0.06; Growth Rate (Fibroblast; [9]): -0.09; Growth Rate (U2OS; [4]): 0.92; Growth Rate (U2OS; [7]): 0.67; Growth Rate (U2OS; [9]): 0.58 |
| N#Cc1cc2c(OCC(O)CN3CCN(C(c4ccccc4)c4ccccc4)CC3)cccc2[nH]1 (racemic) | – | – | 0.54 | 0.62 | 0.32 | 0.27 | – | – | -1 | – | – | – | 0.26 | 0.29 | 0.52 | -0.05 | 0.24 | -0.56 | – | – | Growth Rate (HEK-293T; [10]): 0.77; Growth Rate (Fibroblast; [10]): -0.11; Growth Rate (Fibroblast; [1]): 0.94; Growth Rate (Fibroblast; [8]): 0.91 |
| Cc1cc(Nc2ncc(Cl)c(Nc3ccccc3S(=O)(=O)C(C)C)n2)c(OC(C)C)cc1C1CCNCC1 [CERITINIB] | -0.87 | -0.92 | -0.62 | -0.66 | -0.45 | -0.35 | -0.97 | -0.78 | -0.57 | -0.94 | -0.74 | -0.52 | -0.48 | -0.38 | -0.99 | -0.95 | -0.88 | -0.86 | -0.91 | -0.66 | Growth Rate (Fibroblast; [2]): -1; Growth Rate (Fibroblast; [8]): -0.6; Growth Rate (Fibroblast; [9]): -0.52; Growth Rate (U2OS; [4]): -0.82; Growth Rate (U2OS; [7]): -0.58; Growth Rate (U2OS; [9]): -0.42 |
| COc1cc(/C=C/C(=O)NCCn2c(C)cc3ccccc32)cc(OC)c1OC | 0.24 | 0.36 | 0.61 | 0.51 | 0.69 | 0.75 | 0.39 | 0.39 | -0.39 | 0.34 | – | – | 0.55 | 0.76 | 0.87 | 0.66 | 0.67 | -0.71 | 0.73 | 0.51 | Growth Rate (Fibroblast; [10]): 0.86; Growth Rate (Fibroblast; [2]): 0.79; Growth Rate (Fibroblast; [8]): 0.71; Growth Rate (Fibroblast; [9]): 0.73; Growth Rate (U2OS; [4]): 0.62; Growth Rate (U2OS; [7]): 0.75 |
| Nc1nc(-c2ccco2)c2cnn(Cc3ccccc3F)c2n1 | -0.23 | -0.21 | -0.22 | -0.25 | -0.17 | -0.12 | -0.89 | -0.55 | – | 0.66 | 0.27 | 0.48 | -0.05 | 0.12 | -0.81 | -0.75 | -0.66 | -0.81 | 0.28 | 0.95 | Growth Rate (Fibroblast; [2]): -0.86; Growth Rate (Fibroblast; [8]): -0.29; Growth Rate (Fibroblast; [9]): -0.09; Growth Rate (U2OS; [7]): 0.89; Growth Rate (U2OS; [9]): 0.48 |
| Cc1[nH]cnc1CN1CCc2c(c3ccccc3n2C)C1=O [ALOSETRON] | – | 0.39 | – | – | – | – | 0.22 | – | – | 0.03 | – | 0.87 | 0.96 | – | – | – | – | – | – | 0.89 | Growth Rate (HEK-293T; [10]): 0.73; Growth Rate (Fibroblast; [10]): 0.35; Growth Rate (Fibroblast; [8]): 1; Growth Rate (U2OS; [9]): 0.9 |
